The record followed here is US20250339359A1, “PEPTIDE HAVING ACTIVITY OF IMPROVING STATE OF SKIN, AND USE THEREOF” (CAREGEN CO., LTD., priority 2021, published 2025).

One assay deals with aquaporin-3 (AQP3). Description: Expression of AQP3 in HaCaT cells (RT-PCR). The class given is cell-based, human. The conditions noted are these: 50 µM or 100 µM peptide, 24 hours, FIG. 4, FIG. 5B. As to the method: (§1) In this example, the aim was to confirm the effect of the peptides according to an example on skin barrier defense, by evaluating the expression levels of sirtuin-1 (SIRT-1) or aquaporin-3 (AQP3).
(§2) Specifically, HaCaT cells were seeded in a 6-well plate at a density of 3×10^5 cells/well and cultured for 24 hours. The cells were then washed once with serum-free DMEM media, and the culture medium was replaced with serum-free DMEM media. Thereafter, 50 µM or 100 µM of the peptide consisting of the amino acid sequence of SEQ ID NO: 1 was dispensed into the medium, and cultured in a CO2 incubator at 37° C. for 24 hours. The culture was then washed twice with PBS, and RNA was isolated from the culture using easy blue (iNtRON, Korea). Using the RT kit (Enzynomics, Korea), 1 μg of the isolated RNA was reverse transcribed to synthesize the respective cDNA. Polymerase chain reaction was then performed using the cDNAs and primers sirtuin-1 and aquaporin-3. Meanwhile, the untreated group was used as the control group, and the group to which EGF was added (EGF) was used as the positive control group, the nucleotide sequences of the primers used in this example are shown in Table 3 below.

Another assay concerns elastin. Description: Expression of elastin in NIH3T3 cells (RT-PCR). The assay is classed as cell-based, mouse. The conditions noted are these: 50 µM or 100 µM peptide, 24 hours, FIG. 2, FIG. 3C. The protocol: (§3) In this example, the aim was to confirm the effect of the peptide according to an example on improving endogenous skin aging, including improvement of wrinkles and enhancement of elasticity, etc., by evaluating the expression levels of collagen type 1 (Col1a1), fibronectin, or elastin, which are known components of the dermis.
(§4) Specifically, NIH3T3 cells were seeded in a 6-well plate at a density of 3×10^5 cells/well and cultured for 24 hours. The cells were then washed once with serum-free DMEM media, and the culture medium was replaced with serum-free DMEM media. Thereafter, 50 µM or 100 µM of the peptide consisting of the amino acid sequence of SEQ ID NO: 1 was dispensed into the medium, and cultured in a CO2 incubator at 37° C. for 24 hours. The culture was then washed twice with PBS, and RNA was isolated from the culture using easy blue (iNtRON, Korea). Using an RT kit (Enzynomics, Korea), 1 μg of the isolated RNA was reverse transcribed to synthesize the respective cDNA. Polymerase chain reaction (PCR) was then performed using the cDNAs and primers Col1a1, fibronectin, and elastin. Meanwhile, the untreated group was used as the control group, and the group to which TGF-β1 was added (TGF-β1) was used as the positive control group, the nucleotide sequences of the primers used in this example are shown in Table 2 below.

The subject of another assay is fibronectin. The assay is described as follows: Expression of fibronectin in NIH3T3 cells (RT-PCR). The assay is classed as cell-based, mouse. The conditions noted are these: 50 µM or 100 µM peptide, 24 hours, FIG. 2, FIG. 3B. As to the method: as §3, §4
In assay [1] the test system is HaCaT cells. The assay is described as follows: Reactive oxygen species level after ultraviolet irradiation (DCF-DA, FACS), HaCaT. The class given is cell-based, human. The conditions noted are these: 15 m J/cm2 ultraviolet rays, 50 µM or 100 µM peptide, 24 hours, FIG. 7B. As to the method: (§5) In this example, the aim was to confirm the effect of the peptide according to an embodiment on the antioxidant effect of skin cells induced by ultraviolet rays, by evaluating the level of reactive oxygen species in skin cells increased by ultraviolet irradiation.
(§6) Specifically, NIH3T3 cells or HaCaT cells were seeded in a 6-well plate at a density of 5×10^5 cells/well and cultured for 24 hours. The cells were then washed once with serum-free DMEM media, the culture medium was replaced with serum-free DMEM media, and 50 µM or 100 µM of the peptide consisting of the amino acid sequence of SEQ ID NO: 1 was dispensed to the culture medium. The culture medium dispensed with the peptide was cultured in a CO2 incubator at 37° C. for 1 hour, transferred to an e-tube, mixed with 100 ul of PBS, and dispensed into a well plate. Afterwards, using a UV irradiator (VILBER LOURMAT, France), 6 J/cm2 ultraviolet rays were irradiated to NIH3T3 cells, and 15 m J/cm2 ultraviolet rays were irradiated to HaCaT cells. The PBS in the well plate was then removed, 900 μL of the culture medium in which the peptides were dispensed was added, and the plate was cultured in a CO2 incubator at 37° C. for 24 hours. […] After washing the centrifuged cells with PBS, FL1 fluorescence values were measured through flow cytometry (FACS, BD, USA). […]

The test system of assay [2] is NIH3T3 cells. The assay is described as follows: Reactive oxygen species level after ultraviolet irradiation (DCF-DA, FACS), NIH3T3. The class given is cell-based, mouse. The conditions noted are these: 6 J/cm2 ultraviolet rays, 50 µM or 100 µM peptide, 24 hours, FIG. 7A. The protocol: as §5, §6
The subject of the next assay is sirtuin-1 (SIRT-1). The assay is described as follows: Expression of SIRT-1 in HaCaT cells (RT-PCR). The conditions noted are these: 50 µM or 100 µM peptide, 24 hours, FIG. 4, FIG. 5A. The class given is cell-based, human. The protocol: as §1, §2
In assay [3] the test system is NIH3T3 cells. Description: Survival rate after ultraviolet-induced apoptosis (SRB), NIH3T3. The class given is cell-based, mouse. The conditions noted are these: 6 J/cm2 ultraviolet rays, 50 µM or 100 µM peptide, 72 hours, FIG. 6A. The protocol:
(§7) In this example, the aim was to confirm the effect of the peptide according to an example on the inhibition of apoptosis or cell recovery of skin cells induced by ultraviolet rays, by evaluating the change in survival rate of skin cells whose apoptosis was induced by ultraviolet irradiation.
(§8) Specifically, NIH3T3 cells or HaCaT cells were seeded in a 96-well plate at a density of 1×10^4 cells/well and cultured for 24 hours. The cells were then washed once with serum-free DMEM media, the culture medium was replaced with serum-free DMEM media, and 50 µM or 100 µM of the peptide consisting of the amino acid sequence of SEQ ID NO: 1 was dispensed to the culture medium. The culture medium dispensed with the peptide was cultured in a CO2 incubator at 37° C. for 1 hour, transferred to an e-tube, mixed with 100 ul of PBS, and dispensed into a well plate. Afterwards, using a UV irradiator (VILBER LOURMAT, France), 6 J/cm2 ultraviolet rays were irradiated to NIH3T3 cells, and 15 m J/cm2 ultraviolet rays were irradiated to HaCaT cells. The PBS in the well plate was then removed, 900 μL of the culture medium in which the peptides were dispensed was added, and the plate was cultured in a CO2 incubator at 37° C. for 72 hours. […] The dried culture was then dissolved in 20 mM Tris buffer solution and the absorbance at 560 nm was measured using a microplate reader (Molecular Devices, USA). […]

Assay [4] deals with NIH3T3 cells. Description: Proliferation of skin cells (SRB staining), NIH3T3. The class given is cell-based, mouse. The conditions noted are these: 50 µM or 100 µM peptide, 72 hours, serum-free DMEM, FIG. 1A. As to the method: (§9) In this example, the aim was to confirm the effect of a peptide according to an example on proliferation of skin cells, by evaluating changes in survival rate of NIH3T3 cells, which are mouse fibroblasts, or HaCaT cells, which are human keratinocytes.
(§10) Specifically, NIH3T3 cells or HaCaT cells were seeded in a 96-well plate at a density of 5×10^3 cells/well and cultured for 24 hours. The cells were then washed once with serum-free DMEM media, and the culture medium was replaced with serum-free DMEM media. Then, 50 µM or 100 µM of the peptide consisting of the amino acid sequence of SEQ ID NO: 1 was dispensed into the medium, and cultured in a CO2 incubator at 37° C. for 72 hours. The culture was then washed twice with PBS and treated with 4% paraformaldehyde (PFA) solution for 15 minutes to fix the cultured cells. The culture was then washed twice with distilled water, treated with SRB solution for 1 hour to stain the cells, washed with 1% acetic acid solution, and dried. The dried culture was then dissolved in 20 mM Tris buffer solution and the absorbance at 560 nm was measured using a microplate reader (Molecular Devices, USA). In this example, the untreated group was used as the control group, and the group to which insulin-like growth factor was added (IGF) was used as the positive control group.
(In general: The SRB assay estimates cell density from bound dye.)

Assay [5] deals with HaCaT cells. The assay is described as follows: Survival rate after ultraviolet-induced apoptosis (SRB), HaCaT. The assay is classed as cell-based, human. The conditions noted are these: 15 m J/cm2 ultraviolet rays, 50 µM or 100 µM peptide, 72 hours, FIG. 6B. The protocol: as §7, §8
A further assay has as its system collagen type 1 (Col1a1). Description: Expression of Col1a1 in NIH3T3 cells (RT-PCR). The assay is classed as cell-based, mouse. The conditions noted are these: 50 µM or 100 µM peptide, 24 hours, FIG. 2, FIG. 3A. As to the method:
as §3, §4

In assay [6] the test system is HaCaT cells. The assay is described as follows: Proliferation of skin cells (SRB staining), HaCaT. The class given is cell-based, human. The conditions noted are these: 50 µM or 100 µM peptide, 72 hours, serum-free DMEM, FIG. 1B. The protocol:
as §9, §10

On to EALKYWYEN (Peptide 1) [SEQ ID NO: 1], for which, in the assay on aquaporin-3 (AQP3), the “expression of AQP3” value is on record as “increased”. Further, in the assay on elastin, the expression of elastin result is on record as “increased”. Also, the expression of fibronectin result with fibronectin is reported as “increased”. In addition, the “level of reactive oxygen species in keratinocytes increased by ultraviolet irradiation” value in the assay with HaCaT cells [1] is “reduced”. Further, in the assay on NIH3T3 cells [2], the “level of reactive oxygen species in fibroblasts increased by ultraviolet irradiation” value was “reduced”. For the same sequence, in the assay with sirtuin-1 (SIRT-1), the “expression of SIRT-1” value was “increased”. Besides, the “cell survival rate of fibroblasts reduced by ultraviolet irradiation” value in the assay on NIH3T3 cells [3] is “restored”. The proliferation of fibroblasts result with NIH3T3 cells [4] was “promoted”. Moreover, the “cell survival rate of keratinocytes reduced by ultraviolet irradiation” value in the assay with HaCaT cells [5] is recorded as “restored”. In addition, the “expression of Col1a1” value with collagen type 1 (Col1a1) is recorded as “increased”. For the same sequence, the proliferation of keratinocytes entry in the assay with HaCaT cells [6] was “promoted”.
